According to patent US12708602B2, “Fermentation extracts, cosmetic composition and manufacturing method of fermentation extracts” (bioMOA Medical, Inc., priority 2023, dated 2026):

Conditions: dissolved in purified water (FIG. 3)

N[C@@H](CCC(=O)N[C@@H](CS)C(=O)NCC(=O)O)C(=O)O [glutathione powder, glutathione]
precipitation: precipitation occurred from the first day
